{
  "source": "patent US20100029752A1",
  "about": "“NOVEL COMPOUNDS, PHARMACEUTICAL COMPOSITIONS CONTAINING SAME, AND METHODS OF USE FOR SAME” (priority 2005, published 2010)",
  "key": {"[1]": {"biological_target": "T1, purified human FAS (Homo sapiens, UniProt P49327)", "T1 construct": "Human FAS was purified from cultured ZR-75-1 human breast cancer cells obtained from the American Type Culture Collection; endogenous in cells; host or cells: ZR-75-1 human breast cancer cells (ATCC); enzyme purified by PEG precipitation and Mono Q chromatography", "T1 sequence (P49327 whole entry)": "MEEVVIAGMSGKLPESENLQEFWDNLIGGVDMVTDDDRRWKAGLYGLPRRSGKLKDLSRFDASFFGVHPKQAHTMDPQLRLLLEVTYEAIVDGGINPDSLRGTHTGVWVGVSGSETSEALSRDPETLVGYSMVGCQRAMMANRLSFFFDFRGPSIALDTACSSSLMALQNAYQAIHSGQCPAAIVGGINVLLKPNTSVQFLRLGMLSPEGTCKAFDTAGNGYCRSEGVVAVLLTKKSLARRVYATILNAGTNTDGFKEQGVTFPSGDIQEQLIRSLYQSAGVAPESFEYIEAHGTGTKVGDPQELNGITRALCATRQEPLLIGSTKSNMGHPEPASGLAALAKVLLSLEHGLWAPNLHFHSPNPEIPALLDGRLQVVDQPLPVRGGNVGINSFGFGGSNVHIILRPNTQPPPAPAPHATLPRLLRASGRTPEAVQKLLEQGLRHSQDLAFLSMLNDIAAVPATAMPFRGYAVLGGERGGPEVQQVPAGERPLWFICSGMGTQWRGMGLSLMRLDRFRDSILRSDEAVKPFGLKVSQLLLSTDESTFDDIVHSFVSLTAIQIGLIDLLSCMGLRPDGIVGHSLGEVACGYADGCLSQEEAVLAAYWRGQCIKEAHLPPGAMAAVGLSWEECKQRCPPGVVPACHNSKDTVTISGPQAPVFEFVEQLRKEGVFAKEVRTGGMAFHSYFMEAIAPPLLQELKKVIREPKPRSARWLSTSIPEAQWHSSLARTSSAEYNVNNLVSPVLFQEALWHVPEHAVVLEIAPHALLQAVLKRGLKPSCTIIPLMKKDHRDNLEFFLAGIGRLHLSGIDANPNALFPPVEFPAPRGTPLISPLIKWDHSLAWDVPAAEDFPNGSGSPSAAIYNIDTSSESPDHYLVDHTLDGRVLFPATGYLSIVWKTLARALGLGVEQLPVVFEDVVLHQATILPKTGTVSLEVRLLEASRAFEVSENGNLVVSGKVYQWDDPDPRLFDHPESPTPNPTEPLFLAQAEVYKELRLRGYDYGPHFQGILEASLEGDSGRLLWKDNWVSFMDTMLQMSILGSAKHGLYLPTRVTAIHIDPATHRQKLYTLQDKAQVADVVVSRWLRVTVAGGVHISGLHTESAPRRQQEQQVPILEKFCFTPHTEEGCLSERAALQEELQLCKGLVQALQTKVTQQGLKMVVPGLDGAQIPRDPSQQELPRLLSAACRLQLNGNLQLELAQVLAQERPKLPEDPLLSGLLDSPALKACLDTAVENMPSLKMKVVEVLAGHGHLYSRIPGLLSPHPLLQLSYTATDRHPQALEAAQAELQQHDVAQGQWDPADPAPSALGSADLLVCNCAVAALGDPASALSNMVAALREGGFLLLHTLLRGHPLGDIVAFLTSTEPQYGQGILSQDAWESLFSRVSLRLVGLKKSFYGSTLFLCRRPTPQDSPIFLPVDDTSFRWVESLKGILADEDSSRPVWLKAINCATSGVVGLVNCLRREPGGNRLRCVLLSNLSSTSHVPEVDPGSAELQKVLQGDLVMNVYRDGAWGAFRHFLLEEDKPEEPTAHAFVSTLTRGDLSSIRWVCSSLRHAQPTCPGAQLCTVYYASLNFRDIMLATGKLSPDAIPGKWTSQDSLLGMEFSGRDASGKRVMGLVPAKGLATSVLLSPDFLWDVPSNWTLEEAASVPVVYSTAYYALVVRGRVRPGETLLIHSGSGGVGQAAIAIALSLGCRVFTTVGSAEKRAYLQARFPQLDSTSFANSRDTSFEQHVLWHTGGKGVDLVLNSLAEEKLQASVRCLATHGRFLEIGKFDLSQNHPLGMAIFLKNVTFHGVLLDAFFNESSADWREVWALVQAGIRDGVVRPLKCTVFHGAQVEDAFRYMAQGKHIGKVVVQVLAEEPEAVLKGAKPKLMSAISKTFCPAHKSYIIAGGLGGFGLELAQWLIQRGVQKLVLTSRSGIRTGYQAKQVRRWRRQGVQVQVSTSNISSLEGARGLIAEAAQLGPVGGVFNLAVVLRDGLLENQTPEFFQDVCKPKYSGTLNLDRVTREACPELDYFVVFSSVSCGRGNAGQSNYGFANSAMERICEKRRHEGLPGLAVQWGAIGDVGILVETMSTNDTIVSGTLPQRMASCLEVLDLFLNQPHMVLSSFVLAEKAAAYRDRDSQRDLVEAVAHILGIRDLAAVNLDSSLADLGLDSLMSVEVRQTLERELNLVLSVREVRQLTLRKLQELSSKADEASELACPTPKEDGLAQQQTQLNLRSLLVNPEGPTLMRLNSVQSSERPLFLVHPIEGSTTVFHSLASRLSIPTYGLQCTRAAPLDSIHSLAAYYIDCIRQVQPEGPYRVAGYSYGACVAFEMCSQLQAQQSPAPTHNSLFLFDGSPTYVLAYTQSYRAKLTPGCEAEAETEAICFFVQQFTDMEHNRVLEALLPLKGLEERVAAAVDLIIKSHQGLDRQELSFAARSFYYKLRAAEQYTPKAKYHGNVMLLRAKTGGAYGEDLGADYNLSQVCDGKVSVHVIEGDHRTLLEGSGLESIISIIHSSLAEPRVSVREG", "assay": "FAS enzymatic activity (malonyl-CoA dependent NADPH oxidation)", "type": "biochemical", "conditions": "purified FAS from ZR-75-1 cells, OD340", "protocol": "Human FAS was purified from cultured ZR-75-1 human breast cancer cells obtained from the American Type Culture Collection. The procedure, adapted from Linn et al., 1981, and Kuhajda et al., 1994, utilizes hypotonic lysis, successive polyethyleneglycol (PEG) precipitations, and anion exchange chromatography. ZR-75-1 cells are cultured at 37° C. with 5% CO2 in RPMI culture medium with 10% fetal bovine serum, penicillin and streptomycin.\nTen T150 flasks of confluent cells are lysed with 1.5 ml lysis buffer (20 mM Tris-HCl, pH 7.5, 1 mM EDTA, 0.1 mM phenylmethanesulfonyl fluoride (PMSF), 0.1% Igepal CA-630) and dounce homogenized on ice for 20 strokes. The lysate is centrifuged in JA-20 rotor (Beckman) at 20,000 rpm for 30 minutes at 4° C. and the supernatant is brought to 42 ml with lysis buffer. A solution of 50% PEG 8000 in lysis buffer is added slowly to the supernatant to a final concentration of 7.5%. After rocking for 60 minutes at 4° C., the solution is centrifuged in JA-20 rotor (Beckman) at 15,000 rpm for 30 minutes at 4° C. Solid PEG 8000 is then added to the supernatant to a final concentration of 15%. After the rocking and centrifugation is repeated as above, the pellet is resuspended overnight at 4° C. in 10 ml of Buffer A (20 mM K2HPO4, pH 7.4). After […] filtration, the protein solution is applied to a Mono Q 5/5 anion exchange column (Pharmacia). The column is washed for 15 minutes with buffer A at 1 ml/minute, and bound material is eluted with a linear 60-ml gradient over 60 minutes to 1 M KCl. FAS (MW˜270 kD) typically elutes at 0.25 M KCl in three 0.5 ml fractions identified using 4-15% SDS-PAGE with Coomassie G250 stain (Bio-Rad). FAS protein concentration is determined using the Coomassie Plus Protein Assay Reagent (Pierce) according to manufacturer's specifications using BSA as a standard. This procedure results in substantially pure preparations of FAS (>95%) as judged by Coomassie-stained gels.\nFAS activity is measured by monitoring the malonyl-CoA dependent oxidation of NADPH spectrophotometrically at OD340 in 96-well plates (Dils et al and Arslanian et al, 1975). Each well contains 2 μg purified FAS, 100 mM K2HPO4, pH 6.5, 1 mM dithiothreitol (Sigma), and 187.5 μM β-NADPH (Sigma). Stock solutions of inhibitors are prepared in DMSO at 2, 1, and 0.5 mg/ml resulting in final concentrations of 20, 10, and 5 μg/ml when 1 μl of stock is added per well. For each experiment, cerulenin (Sigma) is run as a positive control along with DMSO controls, inhibitors, and blanks (no FAS enzyme) all in duplicate.\nThe assay is performed on a Molecular Devices SpectraMax Plus Spectrophotometer. The plate containing FAS, buffers, inhibitors, and controls are placed in the spectrophotometer heated to 37° C. Using the kinetic protocol, the wells are blanked on duplicate wells containing 100 μl of 100 mM K2HPO4, pH 6.5 and the plate is read at OD340 at 10 sec intervals for 5 minutes to measure any malonyl-CoA independent oxidation of NADPH. The plate is removed from the spectrophotometer and malonyl-CoA (67.4 μM, final concentration per well) and […] (61.8 μM, final concentration per well) are added to each well except to the blanks. The plate is read again as above with the kinetic protocol to measure the malonyl-CoA dependent NADPH oxidation. The difference between the ΔOD340 for the malonyl-CoA dependent and non-malonyl-CoA dependent NADPH oxidation is the specific FAS activity. Because of the purity of the FAS preparation, non-malonyl-CoA dependent NADPH oxidation is negligible.\nThe concentration of compound yielding 50% inhibition of FAS is the IC50. Graphs of ΔOD340 versus time are plotted by the SOFTmax PRO software (Molecular Devices) for each compound concentration. Computation of linear regression, best-fit line, r^2, and 95% confidence intervals are calculated using Prism Version 3.0 (Graph Pad Software)."}, "[2]": {"system": "MCF-7 human breast cancer cells", "assay": "XTT cytotoxicity assay (M / MCF7)", "type": "cell-based", "conditions": "MCF-7 cells, 72 hours", "protocol": "The XTT assay is a non-radioactive alternative for the [^51Cr] release cytotoxicity assay. XTT is a tetrazolium salt that is reduced to a formazan dye only by metabolically active, viable cells. The reduction of XTT is measured spectrophotometrically as OD490-OD650. To measure the cytotoxicity of specific compounds against cancer cells, 9×10^3 MCF-7 human breast cancer cells, obtained from the American Type Culture Collection are plated per well in 96 well plates in DMEM medium with 10% fetal bovine serum, insulin, penicillin, and streptomycin. Following overnight culture at 37° C. and 5% CO2, the compounds to be tested, dissolved in DMSO, are added to the wells in 1 μl volume at the following concentrations: 80, 40, 20, 10, 5, 2.5, 1.25, and 0.625 μg/ml in triplicate. Additional concentrations are tested if required. 1 μl of DMSO is added to triplicate wells are the vehicle control. C75 is run at 40, 20, […], and 5 μg/ml in triplicate as positive controls. After 72 hours of incubation, cells are incubated for 4 hours with the XTT reagent as per manufacturer's instructions (Cell Proliferation Kit 11 (XTT) Roche). Plates are read at OD490 and OD650 on a Molecular Devices SpectraMax Plus Spectrophotometer. Three wells containing the XTT reagent without cells serve as the plate blank. XTT data are reported as OD490-OD650. Averages and standard error of the mean are computed using SOFTmax Pro software ([…]). The IC50 for the compounds is defined as the concentration of drug leading to a 50% reduction in OD490-OD650 compared to controls. The OD490-OD650 are computed by the SOFTmax PRO software (Molecular Devices) for each compound concentration. IC50 is calculated by linear regression, plotting the FAS activity as percent of control versus drug concentrations. Linear regression, best-fit line, r^2, and 95% confidence intervals are determined using Prism Version 3.0 (Graph Pad Software)."}},
  "data": [
    {"smiles": "COC(=O)c1sc(C(=O)O)cc1O", "values": [
      {"measurement": "FAS (IC50)", "setting": "[1]", "value": "Neg"},
      {"measurement": "IC50", "setting": "[2]", "value": "> 80", "unit": "µg/mL"}
    ]},
    {"smiles": "CCCCCCCCNC(=O)c1cc(O)c(C(=O)OC)s1", "values": [
      {"measurement": "FAS (IC50)", "setting": "[1]", "value": "Neg"},
      {"measurement": "IC50", "setting": "[2]", "value": 47.5, "unit": "µg/mL"}
    ]},
    {"smiles": "C=CCNC(=O)c1cc(O)c(C(=O)OC)s1", "values": [
      {"measurement": "FAS (IC50)", "setting": "[1]", "value": "Neg"},
      {"measurement": "IC50", "setting": "[2]", "value": "> 80", "unit": "µg/mL"}
    ]},
    {"smiles": "CCCCCCCCNNC(=O)c1cc(O)c(C(=O)OC)s1", "values": [
      {"measurement": "FAS (IC50)", "setting": "[1]", "value": "Neg"},
      {"measurement": "IC50", "setting": "[2]", "value": 73.3, "unit": "µg/mL"}
    ]},
    {"smiles": "COC(=O)c1sc(C(=O)NNc2ccc(Cl)cc2)cc1O", "values": [
      {"measurement": "IC50", "setting": "[1]", "value": 230, "unit": "µM"},
      {"measurement": "IC50", "setting": "[2]", "value": "> 80", "unit": "µg/mL"}
    ]},
    {"smiles": "CCCCCCCCNC(=O)c1cc(O)cs1", "values": [
      {"measurement": "FAS (IC50)", "setting": "[1]", "value": "Neg"},
      {"measurement": "IC50", "setting": "[2]", "value": 9.9, "unit": "µg/mL"}
    ]}
  ]
}
